Test results from ChEMBL document CHEMBL3217434, “Matrix-based multiparameter optimisation of glucokinase activators: the discovery of AZD1092” (Medchemcomm, 2011).
Values after ≈ are worked out from the molar mass of the structure shown.

What was measured:
Rattus norvegicus [1] = test: Antidiabetic activity in high fat fed Zucker rat assessed as reduction of AUC of plasma glucose level at 3 mg/kg by oral glucose tolerance test; type: functional; design: scale not given: the % may be the effect or the level left
[2] = Clearance in rat; type: ADME, organism-based; conditions: in vivo
[3] = Apparent permeability from apical to basolateral side of human Caco2 cells; type: ADME, cell-based; conditions: Caco-2
[4] = Oral bioavailability in rat; type: ADME, organism-based; conditions: in vivo
[5] = Volume of distribution at steady state in rat; type: ADME, organism-based; conditions: in vivo, read-out: Vdss
[6] = Solubility of the compound; type: physicochemical
[7] = Clearance in dog; type: ADME, organism-based, Canis lupus familiaris; conditions: in vivo
[8] = molecular target: Voltage-gated inwardly rectifying potassium channel KCNH2 (Homo sapiens, UniProt Q12809); test: Inhibition of human ERG
Sequence of Voltage-gated inwardly rectifying potassium channel KCNH2 (Q12809 whole entry): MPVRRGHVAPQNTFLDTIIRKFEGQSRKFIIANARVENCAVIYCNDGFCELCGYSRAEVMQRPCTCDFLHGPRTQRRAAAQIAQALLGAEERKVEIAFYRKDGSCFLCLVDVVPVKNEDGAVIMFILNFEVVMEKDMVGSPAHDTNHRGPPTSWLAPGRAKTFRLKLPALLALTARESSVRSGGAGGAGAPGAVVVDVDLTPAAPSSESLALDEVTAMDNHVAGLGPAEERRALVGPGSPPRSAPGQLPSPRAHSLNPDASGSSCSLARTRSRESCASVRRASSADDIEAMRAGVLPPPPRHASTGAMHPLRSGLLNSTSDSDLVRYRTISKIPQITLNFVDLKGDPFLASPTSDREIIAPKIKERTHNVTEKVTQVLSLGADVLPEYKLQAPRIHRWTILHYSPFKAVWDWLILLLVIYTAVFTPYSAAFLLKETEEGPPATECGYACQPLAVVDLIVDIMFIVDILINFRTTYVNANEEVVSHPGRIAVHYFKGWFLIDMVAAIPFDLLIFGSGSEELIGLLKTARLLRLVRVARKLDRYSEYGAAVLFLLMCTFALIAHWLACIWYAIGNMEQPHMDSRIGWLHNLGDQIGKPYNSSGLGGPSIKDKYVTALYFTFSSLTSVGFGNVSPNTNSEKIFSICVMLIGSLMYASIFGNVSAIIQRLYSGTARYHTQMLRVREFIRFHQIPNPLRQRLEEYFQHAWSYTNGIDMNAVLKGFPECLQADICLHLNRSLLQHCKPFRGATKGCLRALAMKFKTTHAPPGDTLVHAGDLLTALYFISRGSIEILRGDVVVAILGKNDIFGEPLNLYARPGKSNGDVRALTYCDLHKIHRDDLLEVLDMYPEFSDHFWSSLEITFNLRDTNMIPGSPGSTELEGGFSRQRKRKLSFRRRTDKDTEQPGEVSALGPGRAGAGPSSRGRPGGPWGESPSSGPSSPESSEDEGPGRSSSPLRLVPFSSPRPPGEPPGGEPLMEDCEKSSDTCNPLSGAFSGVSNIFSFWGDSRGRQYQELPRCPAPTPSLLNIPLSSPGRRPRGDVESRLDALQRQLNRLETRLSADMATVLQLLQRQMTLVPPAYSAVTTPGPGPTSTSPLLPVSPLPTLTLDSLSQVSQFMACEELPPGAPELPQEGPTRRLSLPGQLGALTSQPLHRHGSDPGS

[9] = Oral bioavailability in dog; type: ADME, organism-based, Canis lupus familiaris; conditions: in vivo
[10] = Volume of distribution at steady state in dog; type: ADME, organism-based, Canis lupus familiaris; conditions: in vivo, read-out: Vdss
[11] = Lipophilicity, log D of the compound; type: physicochemical; conditions: octanol/water
Hexokinase-4 = molecular target: T1, Hexokinase-4 (Homo sapiens, UniProt P35557); test: Activation of glucokinase (unknown origin)
T1 sequence (P35557 whole entry): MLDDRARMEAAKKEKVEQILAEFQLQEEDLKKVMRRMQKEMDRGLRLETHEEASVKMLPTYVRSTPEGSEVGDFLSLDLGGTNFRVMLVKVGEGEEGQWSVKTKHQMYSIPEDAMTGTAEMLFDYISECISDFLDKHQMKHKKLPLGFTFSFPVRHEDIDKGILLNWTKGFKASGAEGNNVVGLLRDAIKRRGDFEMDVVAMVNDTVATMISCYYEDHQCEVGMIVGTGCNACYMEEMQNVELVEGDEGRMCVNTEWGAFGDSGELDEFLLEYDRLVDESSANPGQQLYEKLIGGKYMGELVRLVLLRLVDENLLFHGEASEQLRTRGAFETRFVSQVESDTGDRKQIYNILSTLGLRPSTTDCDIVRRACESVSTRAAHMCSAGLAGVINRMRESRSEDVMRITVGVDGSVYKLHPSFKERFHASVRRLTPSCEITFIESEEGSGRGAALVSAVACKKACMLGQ

Rattus norvegicus [12] = test: Antidiabetic activity in high fat fed Zucker rat assessed as reduction of AUC of plasma glucose level at 10 mg/kg by oral glucose tolerance test; type: functional; design: scale not given: the % may be the effect or the level left

SMILES | clearance [2] | Papp A→B [3] | bioavailability [4] | Vd [5] | solubility [6] | clearance [7] | bioavailability [9] | Vd [10] | logD [11] | EC50 (Hexokinase-4) | Activity (Rattus norvegicus [1]) | IC50 [8] | Activity (Rattus norvegicus [12])
COC[C@H](C)Oc1cc(Oc2ccc(C(=O)N(C)C)cc2)cc(C(=O)Nc2cc[nH]n2)c1 | 34 mL/min/kg | 2.3 ×10⁻⁶ cm/s | 27% | 1.1 L/kg | 730 µM (≈ 320 µg/mL) | – | – | – | 1.8 | 50 nM | – | > 95000 nM | –
C[C@@H](CO)Oc1cc(Oc2ccc(C(=O)N(C)C)cc2)cc(C(=O)Nc2ccn(C)n2)c1 | 31 mL/min/kg | 1.7 ×10⁻⁶ cm/s | 78% | 1.9 L/kg | > 1000 µM | – | – | – | 1.7 | 40 nM | – | > 100000 nM | –
COC[C@H](C)Oc1cc(Oc2ccc(S(C)(=O)=O)cc2)cc(C(=O)Nc2nccs2)c1 | 11 mL/min/kg | – | 28% | 0.3 L/kg | – | 7.2 mL/min/kg | 11% | 0.8 L/kg | – | – | – | – | 29%

Continued, in another order:

clearance [2] | Papp A→B [3] | bioavailability [4] | Vd [5] | solubility [6] | clearance [7] | bioavailability [9] | Vd [10] | logD [11] | EC50 (Hexokinase-4) | SMILES | Activity (Rattus norvegicus [1]) | IC50 [8] | Activity (Rattus norvegicus [12])
14 mL/min/kg | 1.8 ×10⁻⁶ cm/s | 30% | 1.8 L/kg | 350 µM (≈ 158 µg/mL) | 14 mL/min/kg | 51% | 1.3 L/kg | 1.8 | 30 nM | C[C@@H](CO)Oc1cc(Oc2ccc(C(=O)N3CCC3)cc2)cc(C(=O)Nc2ccn(C)n2)c1 | 24% | 70000 nM | –
5.6 mL/min/kg | – | 71% | 0.2 L/kg | – | 0.5 mL/min/kg | 56% | 0.3 L/kg | – | – | COC[C@H](C)Oc1cc(Oc2ccc(S(C)(=O)=O)cc2)cc(C(=O)Nc2nc(C)ns2)c1 | 27% | – | –
